Read-outs that look alike come from different tables or passages of the source.
Assays:
human CuZn-SOD = target: T1, human CuZn-SOD (Homo sapiens, UniProt P00441); experiment: SOD inhibition assay, human CuZn-SOD; assay type: biochemical; conditions: assayed 100 µM to 0.1 µM; non-linear regression
T1 construct: purchased Sigma Chemical Co. (St. Louis, MO, USA)
Protocol: The previous extraordinary results prompted us to evaluate the inhibitory effect of 3, 5–8 and 10 on the SOD activity. […]
(§1) Parasite cells were collected in the exponential growth phase by centrifugation (400g for 10 min). The pellet obtained after centrifugation was lysated by sonication, processed according to [38] and obtained the homogenate fraction which contained the parasite Fe-SOD. The protein content was quantified using the Sigma Bradford test, which uses BSA as a standard (no trace ability was certified for the BSA standard). Superoxide dismutase activities were determined using a method previously described, which measures the reduction in nitrobluetetrazolium (NBT) by superoxide ions. Human CuZn-SOD. Substrates used in these assays were obtained from Sigma Chemical Co. (St. Louis, MO, USA). Resulting data were analysed using the Newman−Keuls test.

[1] = system: J774.2 murine macrophages; experiment: Cytotoxicity test on macrophages by flow cytometry; assay type: cell-based, mouse; conditions: J774.2 macrophages, 72 h, read-out: Toxicity IC50 Macrophage
Protocol: (§2) The compounds and the reference drug Glu were dissolved in DMSO (Panreac, Barcelona, Spain) and tested from 100 µM to 1 µM with 0.1% (v/v) DMSO final concentration in plates. Therefore, controls were prepared including 0.1% (v/v) of this component, as previously described.
The macrophage line J774.2 [European collection of cell cultures (ECACC) number 91051511] was derived in 1968 from a tumour in a female BALB/c mouse. Macrophages were grown in humidified 95% air, 5% CO2 atmosphere at 37 °C in Minimal Essential Medium (MEM) with 2 mM glutamine and 20% (v/v) inactivated FCS. The cytotoxicity test on macrophages was performed by Flow cytometry analysis according to a method previously described. Briefly, cells were seeded at a density of 5 × 10^4 cells/well in 24-well microplates (Nunc, Naperville, IL, USA). After 48 h incubation, the medium was removed, and fresh medium was added together with each test compound at concentrations from 100 µM to 1 µM and cultured in 500 μL/well volumes for 72 h. Thereafter, cells were recovered by centrifugation, and cell viability was determined by Flow cytometry (FACS Vantage flow cytometer, Becton Dickinson, San Jose, CA, USA) after incubating the cells with propidium iodide ([…]) and fluorescein diacetate (100 ng/mL). The percentage of viability was calculated in comparison with the control cultures. […] Each drug concentration was tested in triplicate in four separate determinations.

[2] = system: L. braziliensis promastigotes; experiment: Ultrastructural alterations by TEM, L. braziliensis; assay type: cell-based, Leishmania braziliensis; conditions: 72 h at IC25 concentration
Protocol: (§3) Parasites were cultured at a density of 5 × 10^5 cells/mL with medium containing the tested compounds at IC25 concentrations. After 72 h at 28 °C, the cultures were processed using a technique previously described and analysed by TEM (LIBRA 120 PLUS, Zeiss, Barcelona, Spain).

[3] = system: Leishmania braziliensis amastigote forms; experiment: Amastigote test (intracellular forms in J774.2 macrophages), L. braziliensis; assay type: cell-based; conditions: 72 h, mean ± SD
Protocol: (§4) Promastigote forms of three different Leishmania spp., L. donovani (MHOM/PE/84/LC26), L. infantum (MCAN/ES/2001/UCM-10) and L. braziliensis (MHOM/BR/1975/M2904), were cultured in vitro in Medium Trypanosomes Liquid (MTL) supplemented with 10% inactivated foetal calf serum (FCS) in an air atmosphere at 28 °C, in Roux flasks (Corning, Manassas, VA, USA) with a surface area of 75 cm^2, according to [33].
as §2
(§5) J774.2 macrophages were grown and seeded at a density of 1 × 10^4 cells/well in 24-well microplates (Nunc) with rounded coverslips on the bottom and cultured for 48 h in humidified 95% air, 5% CO2 atmosphere at 37 °C in Minimal Essential Medium (MEM) with 2 mM glutamine and 20% (v/v) inactivated FCS. Adherent macrophages were infected with metacyclic promastigotes in the stationary growth phase of L. donovani, L. infantum and L. braziliensis at a multiplicity of infection (MOI) ratio of 1:10 and maintained for 24 h. Non-phagocytosed parasites were removed by washing, and after addition of the testing compounds at concentrations from 100 µM to 1 µM, cultured in 500 μL/well volumes. Control cultures were also included. After 72 h incubation, leishmanicidal activity was assessed based on the number of amastigotes in treated and untreated cultures in methanol-fixed and Giemsa-stained preparations by analyzing 500 host cells distributed in randomly chosen microscopic fields. The leishmanicidal effect was calculated as described to determine the leishmanicidal activity in the promastigote forms. Each drug concentration was tested in triplicate in four separate determinations.

[4] = system: Leishmania infantum promastigote forms; experiment: Promastigote test (extracellular forms), L. infantum; assay type: cell-based; conditions: 72 h, 100 µM to 1 µM, mean ± SD of four determinations
Protocol: as §4, §2
(§6) Promastigote forms were collected in the exponential growth phase and seeded at 1 × 10^5 parasites/mL in 24-well microplates (Nunc, Naperville, IL, USA), after adding each compound at concentrations from 100 µM to 1 µM and cultured in 500 μL/well volumes at 28 °C. After 72 h incubation, the leishmanicidal activity was assessed using a Neubauer haemocytometric chamber in comparison with the control cultures. […] Each drug concentration was tested in triplicate in four separate determinations.

[5] = system: Leishmania donovani promastigote forms; experiment: Promastigote test (extracellular forms), L. donovani; assay type: cell-based; conditions: 72 h, 100 µM to 1 µM, mean ± SD
Protocol: as §4, §2, §6

[6] = system: Leishmania donovani amastigote forms; experiment: Amastigote test (intracellular forms in J774.2 macrophages), L. donovani; assay type: cell-based; conditions: 72 h, mean ± SD
Protocol: as §4, §2, §5

[7] = system: L. infantum promastigotes; experiment: Ultrastructural alterations by TEM, L. infantum; assay type: cell-based, Leishmania infantum; conditions: 72 h at IC25 concentration
Protocol: as §3

[8] = system: L. donovani promastigotes; experiment: Ultrastructural alterations by TEM, L. donovani; assay type: cell-based, Leishmania donovani; conditions: 72 h at IC25 concentration
Protocol: as §3

[9] = system: Leishmania infantum amastigote forms; experiment: Amastigote test (intracellular forms in J774.2 macrophages), L. infantum; assay type: cell-based; conditions: 72 h, mean ± SD
Protocol: as §4, §2, §5

[10] = system: Leishmania braziliensis promastigote forms; experiment: Promastigote test (extracellular forms), L. braziliensis; assay type: cell-based; conditions: 72 h, 100 µM to 1 µM, mean ± SD
Protocol: as §4, §2, §6

[11] = system: Leishmania infantum infection of J774.2 macrophages; experiment: Infectivity assay, L. infantum; assay type: cell-based; conditions: IC25 concentration; 10-day infectivity assay
Protocol: (§7) After the initial in vitro studies we were interested in finding out if the six most leishmanicidal compounds could also prevent the infection of host cells. For this reason, we conducted an assay in which the J774.2 macrophages were exposed to the metacyclic promastigotes and the compound at IC25 concentration at the same time. The propagation of the parasitic infection was determined by measuring the infection rate and the average number of amastigotes per macrophage cell present during the 10-day treatment period. In addition, the endocytic (short-time of infection) and infection (long-time of infection) indexes were calculated.
(§8) Adherent macrophages were grown, seeded and infected with metacyclic promastigotes as mentioned above. The compounds at IC25 concentrations (calculated using linear regression analysis from the Kc values of the concentrations employed) were added immediately after infection and incubation was performed for 12 h at 37 °C in humidified 95% air, 5% CO2 atmosphere. in humidified 95% air, 5% CO2 atmosphere at 37 °C Non-phagocytosed parasites and drugs were removed by washing, and then the infected cultures were grown for 10 days, adding fresh culture medium every 48 h, according to [35]. Amastigotes per macrophage count was determined in methanol-fixed and Giemsa-stained preparations as mentioned above every 48 h. […]

[12] = system: L. infantum promastigotes; experiment: Metabolite excretion by 1H-NMR, L. infantum; assay type: cell-based, Leishmania infantum; conditions: IC25 concentration, 72 h, vs untreated
Protocol: Trypanosomatids catabolizes glucose at a high rate, excreting into the medium partly oxidized end products such as acetate, succinate, L-alanine or L-lactate.
Cultures of L. donovani, L. infantum and L. braziliensis promastigotes were seeded in culture flaks at 5 × 10^5 cells/mL, and after the addition of the compounds at IC25 concentrations at 28 °C. Control cultures were also included. After 72 h of incubation, parasites were centrifuged at 400 × g for 10 min, and supernatants were collected in order to determine the excreted metabolites by ^1H-NMR. Chemical shifts were expressed in parts per million (ppm) using sodium 2,2-dimethyl-2-silapentane-5-sulphonate as the reference signal. The One-dimensional ^1H-NMR spectra were acquired with a VARIAN DIRECT DRIVE 400 MHz Bruker spectrometer (Rheinstetten, Germany) with an AutoX probe using D2O as solvent. The chemical shifts used to identify the respective metabolites were consistent with those described previously by some of the authors. The spectral region of 1.0–5.5 ppm was bucketed into a frequency window of 0.1 ppm. The peak (2.6 ppm) corresponding to DMSO was removed before binning, and the regions corresponding to water (4.5–5.5 ppm) and glucose (3.4–3.8 ppm) were excluded during binning to avoid artefacts due to pre-saturation. […]

parasitic Fe-SOD = experiment: SOD inhibition assay, parasitic Fe-SOD of the Leishmania spp. taken together; assay type: biochemical
Protocol: The previous extraordinary results prompted us to evaluate the inhibitory effect of 3, 5–8 and 10 on the SOD activity. […] We used promastigotes of Leishmania spp. to obtain Fe-SOD by cellular disruption and precipitation and assayed the compounds at concentrations ranging from 100 µM to 0.1 µM in each case.
as §1

[13] = system: Leishmania braziliensis infection of J774.2 macrophages; experiment: Infectivity assay, L. braziliensis; assay type: cell-based; conditions: IC25 concentration; last day of the experiment (day 10)
Protocol: as §7, §8

T1 sequence (P00441 whole entry): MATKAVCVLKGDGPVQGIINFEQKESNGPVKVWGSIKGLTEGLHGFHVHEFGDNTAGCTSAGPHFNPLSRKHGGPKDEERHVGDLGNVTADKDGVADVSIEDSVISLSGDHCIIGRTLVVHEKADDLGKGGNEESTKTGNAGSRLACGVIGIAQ

Row | Compound | IC50 (human CuZn-SOD) [µM] | IC50 ([1]; Mus musculus) [µM] | ultrastructural alterations of L. braziliensis promastigotes (TEM) [2] | IC50 ([3]; Leishmania braziliensis) [µM] | IC50 ([4]; Leishmania infantum) [µM] | IC50 ([5]; Leishmania donovani) [µM] | IC50 ([6]; Leishmania donovani) [µM] | ultrastructural alterations of L. infantum promastigotes (TEM) [7] | IC50 ([9]; Leishmania infantum) [µM] | IC50 ([10]; Leishmania braziliensis) [µM] | IC50 [1] [µM] | IC50 [3] [µM] | IC50 [4] [µM] | IC50 [5] [µM] | IC50 [6] [µM] | IC50 [9] [µM] | IC50 [10] [µM] | further results
1 | CN(Cc1ccccn1)C1CCCCC1N(C)Cc1ccccn1 (stereo not drawn) [Compound 8] | > 250 | 268 ± 16.2 | round and lacked in ribosomes | 21.7 ± 1.4 | 83 ± 9.9 | 31.7 ± 2.4 | 1.9 ± 0.3 | most destructive compounds | 22.5 ± 3.1 | 73.8 ± 3.6 |  |  |  |  |  |  |  | ultrastructural alterations of L. donovani promastigotes (TEM) [8]: expanded and disperse Golgi apparatus; day at which the decline in the infection rate appeared, L. infantum [11]: 0.5 days
2 | CN1CCN(C)CCN(Cc2ccccn2)CC1.O=S(=O)([O-])C(F)(F)F.O=S(=O)([O-])C(F)(F)F.[Mn+2] [Compound 3] | > 100 |  | completely swollen, round and full of empty or lipid vacuoles |  |  |  |  | induced agglutination in the parasites |  |  | 98.5 ± 6.3 | 8.7 ± 0.6 | 8.5 ± 0.4 | 28.6 ± 3.5 | 11.7 ± 1.3 | 3.7 ± 1.6 | 9.3 ± 0.3 | Excretion variation ACETATE, L. infantum [12]: 18%; Excretion variation SUCCINATE, L. infantum [12]: 32%; IC50 (parasitic Fe-SOD): > 100 µM
3 | CN1CCN(C)CCN(CCN2CCN(C)CCN(C)CC2)CC1 [Compound 11, TACN2] |  | 75.1 ± 4.7 |  | 30.4 ± 1.3 | 87.5 ± 5.1 | 29.5 ± 4.1 | 19.8 ± 2.6 |  | 34.6 ± 2.5 | 60.6 ± 3.8 |  |  |  |  |  |  |  | 
4 | meglumine antimoniate [Glucantime, reference compound] |  |  |  |  |  |  |  |  |  |  | 15.2 ± 1.3 | 30.4 ± 6.1 | 18 ± 3.1 | 27.3 ± 4.3 | 33.3 ± 3.7 | 24.2 ± 2.6 | 25.6 ± 1.6 | percentage of decrease in infection rate in comparison to the control, L. braziliensis [13]: 36%
5 | CN1CCN(C)CCN(Cc2ccccn2)CC1.O=S(=O)([O-])C(F)(F)F.O=S(=O)([O-])C(F)(F)F.[Fe+2] [Compound 1] |  |  |  |  |  |  |  |  |  |  | 37.9 ± 4.2 | 21.3 ± 0.9 | 18.5 ± 1.6 | 28.6 ± 5.8 | 12.5 ± 2.7 | 20.5 ± 1.8 | 22.3 ± 0.6 | 
6 | [Fe^II2(TACN2)(CH3CN)6](ClO4)4 [Compound 2] |  |  |  |  |  |  |  |  |  |  | 106 ± 8.8 | 12.5 ± 1.5 | 52.6 ± 3.1 | 19.7 ± 1.7 | 16.3 ± 2.5 | 57.5 ± 2.6 | 37.2 ± 1.9 | 
7 | c1ccc(CN2CCN(Cc3ccccn3)CCN(Cc3ccccn3)CC2)nc1 [Compound 10] | > 300 | 126 ± 7.1 | shrunken or dehydrated | 11.9 ± 0.8 | 2.6 ± 0.7 | 18.6 ± 0.9 | 11.6 ± 3.3 | most destructive compounds | 10.4 ± 0.1 | 5.5 ± 0.8 |  |  |  |  |  |  |  | ultrastructural alterations of L. donovani promastigotes (TEM) [8]: most lethal end result
8 | CN1CCN(C)CCN(Cc2ccccn2)CC1 [Compound 9] |  | 100 ± 4.8 |  | 30.7 ± 2.5 | 71.7 ± 10 | 29.5 ± 3.6 | 14.5 ± 2.7 |  | 33.4 ± 3.2 | 53.2 ± 3.6 |  |  |  |  |  |  |  | 
